According to article PMC5325331, “A steroid like phytochemical Antcin M is an anti-aging reagent that eliminates hyperglycemia-accelerated premature senescence in dermal fibroblasts by direct activation of Nrf2 and SIRT-1” (Oncotarget, 2016):

Legend:
HUVECs [1] = assay: Intracellular ROS by DCF fluorescence assay in HUVECs; format: cell-based, human; details: ANM 10 μM with HG (30 mM) for 48 h; HG alone 14.3-fold
Protocol: Cell viability was dermined by MTT assay. Percentage of viable cells were normalized with control cells (NG). B. Cellular senescence was determined by SA-β-gal activity assay as descrided in Materials and Methods. C., D. Total cell lysate was extracted and senescence-associated marker proteins including p16INK4A, p21CIP1, total and acetylated p53 and FoxO1 were measured by western blot analysis. E. Protein expression levels of SIRT-1 and phos-SIRT-1 were monitored by immunoblotting. […] The intracellular ROS level was quantified by utilizing DCFH-DA assay. G. Western blot analysis was performed to determine the protein expression levels of HO-1 and NQO-1. […] Cell lysates were mixed with luciferase reagents and quantified using an illuminometer. Relative ARE promoter activity was calculated by dividing the relative luciferace unit (RLU) of treated cells by RLU of untraeated cells (NG). Results expressed as mean ± SEM of three indipendent expriments. Statistical significance at ^ФP < 0.05 compared to NG vs. HG and *P < 0.05 compared to HG vs. samples.

[2] = system: C. elegans wild type Bristol N2; assay: Life span assay in C. elegans; format: in vivo, Caenorhabditis elegans
Protocol: The wild type Bristol N2 strain was used in this study. C. elegans and Escherichia coli OP50 strain were obtained from the Caenorhabditis Genetic Center, University of Minnesota (Minneapolis-St. Paul, MN). Worms were maintained at 20°C on nematode growth medium (NGM). Hatched worms (L1-stage larvae) were transferred to fresh agar plates and cultured with E. coli OP50 as a food source until they reached the L4 larvae stage. Synchronization of worm cultures was achieved by hypochlorite treatment of gravid hermaphrodites. […] Control worms were treated with 0.1% DMSO. All worms were kept 20°C to develop adulthood. Surviving and dead animals were counted daily (starting from the first day of adulthood) until all worms had died. […] Worms suffering from internal hatch (a defect in egg-laying) and those that crawled off the NGM plate were not included in the life-span assay. During the reproductive period, adult worms were transferred to fresh NGM plates every and then every other day thereafter. Life span assay result was obtained from three independent assays.

HUVECs [3] = assay: Cell viability of HUVECs (MTT assay); format: cell-based, human; details: ANM 10 μM or RES 5 μM for 48 h
Protocol: Human normal dermal fibroblasts ([…]) and human umbilical vein endothelial cells (HUVECs) were obtained from the Bioresource Collection and Research Center (BCRC), Hsinchu, Taiwan. […] Likewise, HUVECs were grown in M-199 medium supplemented with ECGS, heparin, 10% FBS and 100 U/mL penicillin and streptomycin at 37°C in a fully humidified atmosphere of 5% CO2. High-glucose treatment was performed by treating cells with 15 or 30 mM D-glucose (HG) for 24-72 h. […] Cell viability was assessed by MTT colorimetric assay. […] After treatment with HG (15 and 30 mM) in the presence or absence of samples for 24-72 h, culture media was withdrawn and incubated with MTT (1 mg/mL) in fresh medium for 2 h. The MTT formazan crystals were dissolved in 400 μL of DMSO and the samples were measured at 570 nm […] using an ELISA microplate reader (Bio-Tek Instruments, Winooski, VT). The percentage of cell viability (%) was calculated as (A570 of treated cells/A570 of untreated cells) × 100.

HNDFs [4] = assay: Flow cytometric detection of intracellular ROS (DCFH2-DA) in HNDFs; format: cell-based, human
Protocol: Intracellular ROS accumulation was determined using the dye DCFH2-DA following a procedure described earlier. Briefly, HNDFs (1 × 10^5 cells/well) were seeded in 6-well plates and incubated with HG in the presence or absence of test samples for 24 h. At the end of the incubation, the culture supernatant was removed and cells were washed twice with PBS. DCFH2-DA (10 μM) was mixed with 500 μL MEM and added to the culture plate. After incubation for 30 minutes, cells were collected by trypsin and the fluorescence shift was quantified using a flow cytometer (Beckman Coulter). Data were acquired and analyzed using CXP software (Beckman Coulter).

HO-1 and NQO-1 mRNA = assay: Q-PCR of anti-oxidant genes in HNDFs; format: cell-based, human; details: ANM 10 μM, 12 h
Protocol: Total RNA was extracted from cultured HNDFs using Trizol Reagent (Thermo Fisher Scientific). Q-PCR analysis was performed using Applied Biosystems detection instruments and software. Forward and reverse primers (10 μM), and the working solution SYBR green, was used as a PCR master mix, under the following conditions: 96°C for 3 minutes followed by 40 cycles at 96°C for 1 minute, 50°C for 30 seconds and 72°C for 90 seconds. GAPDH was used as an internal standard to control for variability in amplification because of differences in starting mRNA concentrations. The copy number of each transcript was calculated as the relative copy number normalized by GAPDH copy number.

HNDFs [5] = assay: SA-β-gal senescence assay in HG-induced HNDFs; format: cell-based, human
Protocol: Human normal dermal fibroblasts (HNDFs, CCD966SK) and human umbilical vein endothelial cells (HUVECs) were obtained from the Bioresource Collection and Research Center (BCRC), Hsinchu, Taiwan. HNDFs were grown in MEM containing 10% FBS, 2 mM L-glutamine, 100 U/mL penicillin and streptomycin at 37°C in a fully humidified atmosphere of 5% CO2. Likewise, HUVECs were grown in M-199 medium supplemented with ECGS, heparin, 10% FBS and 100 U/mL penicillin and streptomycin at 37°C in a fully humidified atmosphere of 5% CO2. High-glucose treatment was performed by treating cells with 15 or 30 mM D-glucose (HG) for 24-72 h.
(§1) Senescence-associated β-galactosidase (SA-β-gal) activity was determined in formaldehyde-fixed histochemical staining kit according to the manufacturer's instructions (Cell Signaling Technology, Danvers, […]). Briefly, cells were grown in 6-well plates at a density of 5 × 10^4 cells/well, and incubated with HG or test samples for 48 h (HUVECs) or 72 h (HNDFs). After incubation, cells were stained with SA-β-gal staining solution at pH 6.0 overnight and then the development of blue staining was observed and photographed under a bright-field microscope (Motic Electric Group, Xiamen, P.R. China).

HUVECs [6] = assay: SA-β-gal senescence assay in HG-treated HUVECs; format: cell-based, human; details: ANM 10 μM with HG (30 mM) for 48 h; HG alone 6.38-fold
Protocol: as §1

C=C(CCC(C)C1CCC2C3=C(C(=O)C(O)C21C)C1(C)CCC(O)C(C)C1CC3)C(C)C(=O)O (stereo not shown) [ANM, antcin M] was tested, and the “intracellular ROS levels” value (HUVECs [1]) was 6.1 fold, the “life span of C. elegans under normal condition” value ([2]; ANM 10 μM or RES 438 μM alone, compared to the control) was “significantly (P < 0.026) prolonged the life span” and the “life span of C. elegans under high glucose” value ([2]; high glucose (50 mM) with ANM (100 μM as printed elsewhere in the source), vs high glucose alone) was “significant (P < 0.0001) increase of life span”. For the same molecule, the “cell viability of HUVECs, treatment alone” value (HUVECs [3]) was “did not affect cell viability”, the “HG-induced ROS generation” value (HNDFs [4]; ANM 10 μM or NAC 100 μM with HG (30 mM) for 24 h, HG alone 426.2%) was 200.8% and the “ROS generation, treatment alone” value (HNDFs [4]; ANM 10 μM or NAC 100 μM without HG, 24 h) was “did not significantly increase ROS generation”. For the same molecule, the “mRNA levels of HO-1 and NQO-1” value (HO-1 and NQO-1 mRNA) was “significantly increased”, the SA-β-gal positive cells (HNDFs [5]; 10 μM with HG (30 mM) for 72 h, HG alone 9.59-fold (Figure 2B)) was 1.51 fold and the SA-β-gal positive cells (HNDFs [5]; ANM 10 μM with HG (30 mM) for 72 h, HG alone 5.72-fold (Figure 4B)) was 1.89 fold. The “SA-β-gal staining (endothelial senescence)” value (HUVECs [6]) was 1.36 fold.
